Measured values taken from publication PMC6200358 (Science Advances, 2018).

Tests used:
human CB1R = human CB1R (Homo sapiens, UniProt P21554); test: [35S]GTPγS binding assay, CHO-hCB1 membranes; type: biochemical
human CB2R = human CB2R (Homo sapiens, UniProt P34972); test: [35S]GTPγS binding assay, CHO-hCB2 membranes; type: biochemical
BALB/c mice = test: Tetrad test; type: in vivo, mouse; details: pretreatment at 5 mg/kg

Chain of human CB1R (P21554 whole entry): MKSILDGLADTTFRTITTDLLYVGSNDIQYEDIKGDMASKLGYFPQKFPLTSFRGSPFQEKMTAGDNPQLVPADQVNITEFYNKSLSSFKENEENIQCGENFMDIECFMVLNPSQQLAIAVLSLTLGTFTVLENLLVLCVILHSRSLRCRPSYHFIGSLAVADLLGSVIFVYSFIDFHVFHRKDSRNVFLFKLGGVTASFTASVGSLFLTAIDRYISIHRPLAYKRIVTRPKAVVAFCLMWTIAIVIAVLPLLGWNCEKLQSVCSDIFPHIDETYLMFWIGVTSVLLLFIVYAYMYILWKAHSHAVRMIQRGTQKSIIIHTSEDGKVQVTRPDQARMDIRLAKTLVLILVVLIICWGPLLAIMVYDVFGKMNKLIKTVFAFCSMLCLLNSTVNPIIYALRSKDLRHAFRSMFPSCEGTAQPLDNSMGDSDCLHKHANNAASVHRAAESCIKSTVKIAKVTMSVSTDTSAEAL
Chain of human CB2R (P34972 whole entry): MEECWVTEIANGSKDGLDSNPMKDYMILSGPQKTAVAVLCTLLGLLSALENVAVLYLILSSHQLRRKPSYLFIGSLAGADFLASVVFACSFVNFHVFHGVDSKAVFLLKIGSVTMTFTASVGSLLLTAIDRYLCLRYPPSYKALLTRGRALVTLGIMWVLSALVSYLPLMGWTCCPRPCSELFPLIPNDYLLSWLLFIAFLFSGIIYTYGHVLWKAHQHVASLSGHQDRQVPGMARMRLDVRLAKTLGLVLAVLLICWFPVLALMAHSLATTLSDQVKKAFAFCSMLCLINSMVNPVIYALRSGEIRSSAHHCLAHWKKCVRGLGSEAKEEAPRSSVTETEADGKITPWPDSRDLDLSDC

SMILES	CB1R agonist type (full or partial agonist) (human CB1R; [35S]GTPγS binding)	Emax (human CB1R; read-out: Receptor activation CB1R (Emax)) [%]	CB2R agonist type (full or partial agonist) (human CB2R; [35S]GTPγS binding)	Emax (human CB2R; read-out: Receptor activation CB2R (Emax)) [%]	Blockade of the tetrad effects of PET and THC diastereoisomers (BALB/c mice)
CCCCCCC(C)(C)c1ccc([C@@H]2C[C@H](O)CC[C@H]2CCCO)c(O)c1 [CP55,940]	full	173 ± 6	full	194 ± 5	–
Cc1c(C(=O)NN2CCCCC2)nn(-c2ccc(Cl)cc2Cl)c1-c1ccc(Cl)cc1 [rimonabant, Rimonabant]	–	–	–	–	fully abolished
